Reference: ChEMBL document CHEMBL5550106, “Recent advances in the exploration of oxazolidinone scaffolds from compound development to antibacterial agents and other bioactivities” (Eur J Med Chem, 2024)
Converted amounts (≈) assume the structure as drawn.

System: Mycobacterium tuberculosis
Test: Antitubercular activity against Multi-drug resistant Mycobacterium tuberculosis assessed as inhibition of bacterial growth incubated for 14 days by microplate alamar blue assay
Format: functional
Settings: 336 h, time 14 day

With `CN1CCN(c2ccc(N3C[C@H](CO)OC3=O)cc2F)C=N1` [DELPAZOLID] the MIC90 was 0.5 µg/mL (≈ 1.62 µM).
